Values quoted from earlier work in patent US20080233128A1, “Treatment of Viral Infections” (priority 2006, published 2008).

Tested on: circulating T-cells

For alemtuzumab, the “time to full recovery of T-cells” value (after a single dose, FIG. 1) is given as ≥ 3 months and the “T-cell depletion (killing of circulating T-cells)” value (single dose, FIG. 1, mean ALC as a function of time) is given as “kill all circulating T-cells”.
